The text below walks through data of US9850283B2, “Macrocyclic inhibitors of the PD-1/PD-L1 and CD80(B7-1)/PD-L1 protein/protein interactions” (BRISTOL-MYERS SQUIBB COMPANY, priority 2013, dated 2017).

Structures are written as SMILES. Where two headings read alike, the source gives them in different places. Positions of bridges follow the written chain, without caps; N, C: chain ends. Non-standard residues stand in square brackets, D forms with d. Residues, ends and D or L forms follow the SMILES beside them. ξ: configuration not given here. Hyp = O=C(O)[C@@H]1C[C@@H](O)CN1; NMeNle = CCCC[C@H](NC)C(=O)O; NMeA = CN[C@@H](C)C(=O)O; Dap = NC[C@H](N)C(=O)O; ξP = O=C(O)C1CCCN1; Sar = CNCC(=O)O

Experiment [1] deals with CMV-specific T cells. The settings on record: read-out: EC50, IFNγ secretion by CMV-specific T cells; FIG. 10A-C.
The target in another experiment is Hu PD-L1/PD-1 (Homo sapiens, UniProt Q9NZQ7). Kind of experiment: Cell binding assay Hu PD-L1/PD-1 (Tables 11-13, cell line not given). It is filed as cell-based. The note with it: Table 11. The procedure, abridged: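 Three formats. In the L2987 imaging assay, natively PD-L1-expressing cells received inhibitor and PE-PD-1-Ig for 1 h at 37 °C, followed by fixation and nuclear Hoechst staining. In the flow-cytometry assays, LK35.2 cells overexpressing hPD-L1 were pre-treated 15 min with inhibitor, then bound 2 nM PE-PD-1-Ig for 1 h at RT in RPMI/2% FCS, while Jurkat-PD-1 cells bound PE-PD-L1-Ig.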
Chain of Hu PD-L1/PD-1 (Q9NZQ7 19-290): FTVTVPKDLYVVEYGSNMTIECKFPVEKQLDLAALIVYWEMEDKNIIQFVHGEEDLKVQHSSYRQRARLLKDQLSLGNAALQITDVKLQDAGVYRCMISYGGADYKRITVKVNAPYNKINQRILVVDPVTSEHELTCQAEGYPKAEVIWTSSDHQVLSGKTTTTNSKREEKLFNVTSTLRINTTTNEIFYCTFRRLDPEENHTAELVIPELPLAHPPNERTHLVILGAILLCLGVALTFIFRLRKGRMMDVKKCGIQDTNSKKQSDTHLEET

In a further experiment the target is T1, Human PD-L1/PD-1 (Homo sapiens, UniProt Q9NZQ7).
T1 construct: made in house; host or cells: HEK293T
T1 sequence (Q9NZQ7 with tags, fused parts or gaps): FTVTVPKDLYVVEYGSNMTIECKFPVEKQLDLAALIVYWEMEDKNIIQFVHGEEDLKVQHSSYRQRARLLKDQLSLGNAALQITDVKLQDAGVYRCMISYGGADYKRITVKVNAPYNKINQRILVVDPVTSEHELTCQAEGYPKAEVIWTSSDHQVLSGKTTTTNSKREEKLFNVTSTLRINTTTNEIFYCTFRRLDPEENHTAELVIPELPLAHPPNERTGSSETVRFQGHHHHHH
Kind of experiment: HTRF PD-1-Ig/PD-L1-His binding assay (human PD-L1). The procedure, abridged: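 HTRF read-out: Eu cryptate anti-Ig mAb 1 nM final, APC anti-His mAb 20 nM final, added over the binding reaction. Proteins were PD-1-Ig and PD-L1-His ectodomain fusions. Buffer was dPBS, 0.1% BSA, 0.05% Tween-20.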

For experiment [2], the target named is CMV-specific T cells (Homo sapiens, UniProt Q9NZQ7). In words: CMV-specific T cell function assay (IFNγ secretion, ELISA). It is filed as cell-based. As for the experimental part:
CMV-specific T Cell Function Assay. […] AIM-V medium (Life Technologies, Grand Island, N.Y.) supplemented with 10% heat-inactivated fetal bovine serum (FBS, Sigma, St Louis, Mo.) was used at a total volume of 200 µL/well in triplicate. The cells were cultured for 4 days at 37° C., 5% CO2 at which time culture supernatant was harvested for determination of secreted IFNγ by ELISA (OptEIA hIFNγ ELISA Kit, BD Biosciences, San Jose, Calif.).
(An ELISA detects its analyte on a solid surface through an enzyme-linked reagent.)

The target in experiment [3] is T2, LK35.2-hPD-L1 cells / PE-labeled PD-1-Ig (Homo sapiens, UniProt Q9NZQ7).
T2 construct: expressed in transfected cells; host or cells: LK35.2 mouse B cell line
T2 sequence (Q9NZQ7 19-290): as the sequence (Q9NZQ7 19-290) above
Kind of experiment: LK35.2-hPD-L1 cell binding high-content screening assay. The note with it: cell binding assay, cell line not given. It is filed as cell-based. The procedure, abridged:
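Fluorescent PD-1-Ig binding to PD-L1-expressing LK35.2 cells, imaged after washing. Conditions: 1 nM PE-PD-1-Ig, 37 °C, 1 h, RPMI with 10% fetal calf serum.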

The mark [4] stands for this setting: Table 6, read-out: HTRF Human PD-L1/PD-1 Binding Assay IC50.

One may read the EC50 as the midpoint of the concentration-response curve.

Chain of CMV-specific T cells (Homo sapiens, UniProt Q9NZQ7) (Q9NZQ7 19-290): as above

Take `CCCC[C@H]1C(=O)N(C)[C@@H](CCCC)C(=O)N[C@@H](CC(C)C)C(=O)N[C@H](C(=O)NCC(N)=O)CSCC(=O)N[C@@H](Cc2ccccc2)C(=O)N(C)[C@@H](C)C(=O)N[C@@H](CC(N)=O)C(=O)N2CCCC2C(=O)N[C@@H](Cc2cnc[nH]2)C(=O)N[C@@H](Cc2c[nH]cn2)C(=O)N[C@@H](CO)C(=O)N[C@@H](Cc2c[nH]c3ccccc23)C(=O)N[C@@H](CCCNC(=N)N)C(=O)N[C@@H](Cc2c[nH]c3ccccc23)C(=O)N1C` (stereo partly drawn) [Compound No. 2] ({CH2CO}-F[NMeA]N[ξP]HHSWRW[NMeNle][NMeNle]LCG-NH2; thioether N-14): the EC50 in the experiment with CMV-specific T cells [1] turned out to be 400 nM. Besides, at Hu PD-L1/PD-1, the IC50 turned out to be 43 nM.
In the case of `CC[C@H](C)[C@@H]1NC(=O)[C@H](CC(C)C)NC(=O)[C@H](Cc2ccccc2)NC(=O)CSC[C@@H](C(=O)NCC(N)=O)NC(=O)[C@H](CCCNC(=N)N)NC(=O)[C@H](Cc2ccccc2)NC(=O)[C@H](C(C)C)NC(=O)[C@H](CCCNC(=N)N)NC(=O)[C@H](CC(=O)O)NC(=O)[C@H](CCCNC(=N)N)NC(=O)[C@H]([C@@H](C)CC)NC(=O)[C@H](C(C)C)NC1=O` [Compound No. 99] (HELM PEPTIDE1{[O=C(C[*:3])[*:2]].F.L.I.V.I.R.D.R.V.F.R.C.G.[am]}$PEPTIDE1,PEPTIDE1,1:R3-13:R3$$$V2.0), the EC50 with CMV-specific T cells [1] is > 10000 nM. In addition, the IC50 is 153 nM at Human PD-L1/PD-1 (setting [4]) and 153 nM on Human PD-L1/PD-1 (Table 7, Compound No. 99 variant macrocyclic peptides, read-out: HTRF Human PD-L1/PD-1 Binding Assay IC50).
`CCCC[C@H]1C(=O)N(C)CC(=O)N[C@@H](CC(=O)O)C(=O)N[C@@H](C(C)C)C(=O)N(C)[C@@H](Cc2ccccc2)C(=O)N[C@@H](Cc2ccc(O)cc2)C(=O)N(C)CC(=O)N[C@@H](Cc2c[nH]c3ccccc23)C(=O)N[C@@H](Cc2ccc(O)cc2)C(=O)N[C@@H](CC(C)C)C(=O)N[C@H](C(=O)NCC(N)=O)CSCC(=O)N[C@@H](Cc2ccccc2)C(=O)N(C)[C@@H](Cc2ccccc2)C(=O)N1C` [Compound No. 71] (HELM PEPTIDE1{[O=C(C[*:3])[*:2]].F.[meF].[CCCC[C@@H](C(=O)[*:2])N(C)[*:1]].[Sar].D.V.[meF].Y.[Sar].W.Y.L.C.G.[am]}$PEPTIDE1,PEPTIDE1,1:R3-14:R3$$$V2.0): the EC50 in the experiment with CMV-specific T cells [1] is 300 nM. In addition, the IC50 at Human PD-L1/PD-1 (setting [4]) was 7 nM; on Human PD-L1/PD-1 (Table 9, Compound No. 71 variant macrocyclic peptides, read-out: HTRF Human PD-L1/PD-1 Binding Assay IC50), 7 nM; on Hu PD-L1/PD-1, 10 nM.
Turning to `CCCC[C@H]1C(=O)N(C)[C@@H](CCCC)C(=O)N[C@@H](CCCNC(=N)N)C(=O)N[C@H](C(=O)NCC(N)=O)CSCC(=O)N[C@@H](Cc2ccccc2)C(=O)N(C)[C@@H](C)C(=O)N[C@@H](CC(N)=O)C(=O)N2CCCC2C(=O)N[C@@H](Cc2cnc[nH]2)C(=O)N[C@@H](CC(C)C)C(=O)N(C)CC(=O)N[C@@H](Cc2c[nH]c3ccccc23)C(=O)N[C@@H](CO)C(=O)N[C@@H](Cc2c[nH]c3ccccc23)C(=O)N1C` (stereo partly drawn) [Compound No. 1] ({CH2CO}-F[NMeA]N[ξP]HL[Sar]WSW[NMeNle][NMeNle]RCG-NH2; thioether N-14), the EC50 with CMV-specific T cells [1] came out at 400 nM. Moreover, the IC50 was found to be 9 nM on Human PD-L1/PD-1 (setting [4]) and 9 nM at Human PD-L1/PD-1 (Table 8, Compound No. 1 variant macrocyclic peptides, read-out: HTRF Human PD-L1/PD-1 Binding Assay IC50).
Regarding `CCCC[C@H]1C(=O)N[C@@H](CCCNC(=N)N)C(=O)NC(C(=O)NCC(N)=O)CSCC(=O)N[C@@H](Cc2ccc(O)cc2)C(=O)N(C)[C@@H](C)C(=O)N[C@@H](CC(N)=O)C(=O)N2CCC[C@H]2C(=O)N[C@@H](Cc2cnc[nH]2)C(=O)N[C@@H](CC(C)C)C(=O)N2C[C@H](O)C[C@H]2C(=O)N[C@@H](Cc2c[nH]c3ccccc23)C(=O)N[C@@H](CO)C(=O)N[C@@H](Cc2c[nH]c3ccccc23)C(=O)N(C)[C@@H](CCSC)C(=O)N1C` (stereo partly drawn) [Example 9026], the EC50 on CMV-specific T cells [2] (numeric value, read-out: CMV Recall EC50 values) came to 34.4 nM. Also, the IC50 on Human PD-L1/PD-1 (numeric value, read-out: HTRF IC50 values) is 3.47 nM; in experiment [3] (numeric value, read-out: CBA IC50 values), 0.948 nM.
For the compound `CCCC[C@H]1C(=O)N(C)[C@@H](CCCC)C(=O)N[C@@H](CN)C(=O)N[C@H](C(=O)NCC(N)=O)CSCC(=O)N[C@@H](Cc2ccc(O)cc2)C(=O)N(C)[C@@H](C)C(=O)N[C@@H](CC(N)=O)C(=O)N2CCC[C@H]2C(=O)N[C@@H](Cc2cnc[nH]2)C(=O)N[C@@H](CCC(=O)O)C(=O)N2C[C@H](O)C[C@H]2C(=O)N[C@@H](Cc2c[nH]c3ccccc23)C(=O)N[C@@H](CO)C(=O)N[C@@H](Cc2c[nH]c3ccccc23)C(=O)N1C` [Example 5062] ({CH2CO}-Y[NMeA]NPHE[Hyp]WSW[NMeNle][NMeNle][Dap]CG-NH2; thioether N-14), the EC50 at CMV-specific T cells [2] (value given instead of cluster, read-out: CMV Recall EC50 value) came out at 14.5 nM. In addition, the IC50 on Human PD-L1/PD-1 (value given instead of cluster, read-out: HTRF IC50 value) stood at 5.15 nM; in experiment [3] (value given instead of cluster, read-out: CBA IC50 value), 2.28 nM.
